Experimental data from patent US9676704B2, “Pesticidal compositions and processes related thereto” (Dow AgroSciences LLC, priority 2014, dated 2017).
Like-named read-outs stand apart in the source and are kept apart here.

How the values were obtained:
[1] = tested on: Yellow Fever Mosquito (YFM); type: in vivo, Aedes aegypti; settings: 15 μL of diluted 4000 ppm master solution per well, about 1 day-old larvae, 3 days
Protocol: Master plates containing 400 μg of a molecule dissolved in 100 μL of dimethyl sulfoxide (DMSO) (equivalent to a 4000 ppm solution) are used. A master plate of assembled molecules contains 15 μL per well. To this plate, 135 μL of a 90:10 water:acetone mixture is added to each well. A robot (Biomek® NXP Laboratory Automation Workstation) is programmed to dispense 15 μL aspirations from the master plate into an empty 96-well shallow plate (“daughter” plate). There are 6 reps (“daughter” plates) created per master. The created daughter plates are then immediately infested with YFM larvae. The day before plates are to be treated, mosquito eggs are placed in Millipore water containing liver powder to begin hatching (4 g. into 400 mL). After the daughter plates are created using the robot, they are infested with 220 μL of the liver powder/larval mosquito mixture (about 1 day-old larvae). After plates are infested with mosquito larvae, a non-evaporative lid is used to cover the plate to reduce drying. Plates are held at room temperature for 3 days prior to grading. After 3 days, each well is observed and scored based on mortality. The results are indicated in the table entitled “Table ABC: Assay Results (F)” and “Table ABCD: Assay Results (C)” (See Table Section). Pesticidally Acceptable Acid Addition Salts, Salt Derivatives, Solvates, Ester Derivatives, Polymorphs, Isotopes and Radionuclides

Beet Armyworm (BAW) = experiment: Bioassays on BAW, 128-well diet tray assay; type: in vivo; settings: Spodoptera exigua, 168 h, read-out: BAW % Control (or Mortality) rating
Procedure, shortened: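 Test compound was applied at 50 μg/cm^2 in 90:10 acetone-water to the artificial diet surface and dried, with eight wells per compound. One to five second-instar beet armyworm larvae were placed per well and held at 25 °C, 14:10 light-dark, for five to seven days. Percent mortality was averaged over the wells.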

Cabbage Looper (CL) = experiment: Bioassays on CL, 128-well diet tray assay; type: in vivo; settings: Trichoplusia ni, 168 h, read-out: CL % Control (or Mortality) rating
Procedure, shortened: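 Second-instar larvae, one to five per well, were placed on artificial diet treated with 50 μg/cm^2 compound (in 90:10 acetone-water) and dried, with eight wells per compound. Trays were held at 25° C, 14:10 light-dark, for five to seven days. Percent mortality was scored per well and averaged.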

[2] = 50 μg/cm^2 on artificial diet, second instar larvae, five to seven days, 25° C.

Row | Structure (SMILES) | YFM % Control (or Mortality) rating [1] | mortality at 50 µg/cm2 (Beet Armyworm (BAW); [2]) | mortality at 50 µg/cm2 (Cabbage Looper (CL); [2]) | mortality at 50 µg/cm2 (Beet Armyworm (BAW)) | mortality at 50 µg/cm2 (Cabbage Looper (CL))
1 | CC(C)CC(=O)N[C@@H](C)NC(=O)c1ccc(/C=C/C(c2cc(Cl)c(Cl)c(Cl)c2)C(F)(F)F)cc1C(F)(F)F (stereo partly drawn) [Compound F6, N—((R)-1-(3-Methylbutanamido)ethyl)-4-((E)-4,4,4-trifluoro-3-(3,4,5-trichlorophenyl)but-1-en-1-yl)-2-(trifluoromethyl)benzamide] | A (80-100) | 50 to 100% | 50 to 100% | – | –
2 | C[C@H](NC(=O)CC(F)(F)F)NC(=O)c1ccc(/C=C/C(c2cc(Br)cc(Br)c2)C(F)(F)F)cc1C(F)(F)F (stereo partly drawn) [Compound P3, 4-((E)-3-(3,5-Dibromophenyl)-4,4,4-trifluorobut-1-en-1-yl)-2-(trifluoromethyl)-N—((R)-1-(3,3,3-trifluoropropanamido)ethyl)benzamide] | B (More than 0-Less than 80) | 50 to 100% | 50 to 100% | – | –
3 | CC(C)CCC(=O)N[C@@H](C)NC(=O)c1ccc(/C=C/C(c2cc(Cl)c(Cl)c(Cl)c2)C(F)(F)F)cc1C(F)(F)F (stereo partly drawn) [Compound F4, N—((R)-1-(4-Methylpentanamido)ethyl)-4-((E)-4,4,4-trifluoro-3-(3,4,5-trichlorophenyl)but-1-en-1-yl)-2-(trifluoromethyl)benzamide] | A (80-100) | 50 to 100% | 50 to 100% | – | –
4 | C[C@H](NC(=O)CCC#N)NC(=O)c1ccc(/C=C/C(c2cc(Cl)c(Cl)c(Cl)c2)C(F)(F)F)cc1C(F)(F)F (stereo partly drawn) [Compound F9, N—((R)-1-(3-cyanopropanamido)ethyl)-4-((E)-4,4,4-trifluoro-3-(3,4,5-trichlorophenyl)but-1-en-1-yl)-2-(trifluoromethyl)benzamide] | A (80-100) | 50 to 100% | 50 to 100% | – | –
5 | C[C@@H](NC(=O)c1ccc(/C=C/C(c2cc(Cl)c(Cl)c(Cl)c2)C(F)(F)F)cc1C(F)(F)F)NC(=O)C1CC1 (stereo partly drawn) [Compound F7, N—((R)-1-(Cyclopropanecarboxamido)ethyl)-4-((E)-4,4,4-trifluoro-3-(3,4,5-trichlorophenyl)but-1-en-1-yl)-2-(trifluoromethyl)benzamide] | A (80-100) | 50 to 100% | 50 to 100% | – | –
6 | CN(CCNC(=O)c1ccc(/C=C/C(c2cc(Cl)c(Cl)c(Cl)c2)C(F)(F)F)cc1C(F)(F)F)C(=O)C(F)(F)F (stereo not drawn) [Compound F21, (E)-4-(4,4,4-trifluoro-3-(3,4,5-trichlorophenyl)but-1-en-1-yl)-N-(2-(2,2,2-trifluoro-N-methylacetamido)ethyl)-2-(trifluoromethyl)benzamide] | B (More than 0-Less than 80) | 50 to 100% | 50 to 100% | – | –
7 | CN(NC(=O)c1ccc(/C=C/C(c2cc(Cl)c(Cl)c(Cl)c2)C(F)(F)F)cc1C(F)(F)F)C(=O)OC(C)(C)C (stereo not drawn) [Compound C116, (E)-tert-butyl 1-methyl-2-(4-(4,4,4-trifluoro-3-(3,4,5-trichlorophenyl)but-1-en-1-yl)-2-(trifluoromethyl)benzoyl)hydrazinecarboxylate] | A (80-100) | – | – | 50 to 100% | 50 to 100%
8 | Cc1cc(/C=C/C(c2cc(Cl)c(F)c(Cl)c2)C(F)(F)F)ccc1C(=O)N[C@H](C)NC(=O)CC(F)(F)F (stereo partly drawn) [Compound P5, 4-((E)-3-(3,5-Dichloro-4-fluorophenyl)-4,4,4-trifluorobut-1-en-1-yl)-2-methyl-N—((R)-1-(3,3,3-trifluoropropanamido)ethyl)benzamide] | A (80-100) | 50 to 100% | 50 to 100% | – | –
9 | C[C@H](NC(=O)CCC(F)(F)F)NC(=O)c1ccc(/C=C/C(c2cc(Br)c(Cl)c(Br)c2)C(F)(F)F)cc1C(F)(F)F (stereo partly drawn) [Compound P10, 4-((E)-3-(3,5-Dibromo-4-chlorophenyl)-4,4,4-trifluorobut-1-en-1-yl)-N—((R)-1-(4,4,4-trifluorobutanamido)ethyl)-2-(trifluoromethyl)benzamide] | A (80-100) | 50 to 100% | 50 to 100% | – | –
